Measurements from the supplement of paper PMC11061612.

What was measured:
[1] = tested on: SW1573 (Lung Adenocarcinoma); test: Bliss excess, mean over the matrix (fraction); higher = more synergy
How it was run: (§1)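 Cell lines grown in DMEM/F12 or RPMI with 10% FBS were plated in 1536-well plates and held 24 hours at 37°C, 5% CO2 before 72 hours of exposure to two-drug dose matrices, with DMSO typically at 0.2%. CellTiter-Glo 2.0 luminescence gave viability, which was converted to inhibition. Vehicle wells were set to 0 and blank wells to 1. Combination Emax is the second-highest inhibition in the matrix, and Bliss excess is the observed combination effect minus the expected EA + EB − EA·EB, where EA and EB are the single-agent effects.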

[2] = tested on: NCI-H2722 (Mesothelioma); test: as above
How it was run: as §1

[3] = tested on: NCI-H720 (Other Solid Carcinomas); test: as above
How it was run: as §1

[4] = tested on: HuH-7 (Hepatocellular Carcinoma); test: as above
How it was run: as §1

[5] = tested on: TGBC1TKB (Biliary Tract Carcinoma); test: as above
How it was run: as §1

[6] = tested on: GAMG (Glioblastoma); test: as above
How it was run: as §1

[7] = tested on: NCI-H524 (Small Cell Lung Carcinoma); test: as above
How it was run: as §1

[8] = tested on: BE2-M17 (Neuroblastoma); test: as above
How it was run: as §1

[9] = tested on: CAL-33 (Oral Cavity Carcinoma); test: as above
How it was run: as §1

[10] = tested on: NCI-H720 (Other Solid Carcinomas); test: combination Emax (second highest fraction inhibited in the dose matrix, 72 h); higher = more inhibition; extreme values may be limits of the assay
How it was run: as §1

[11] = tested on: MHH-CALL-2 (B-Lymphoblastic Leukemia); test: Bliss excess, mean over the matrix (fraction); higher = more synergy
How it was run: as §1

[12] = tested on: MHH-CALL-2 (B-Lymphoblastic Leukemia); test: combination Emax (second highest fraction inhibited in the dose matrix, 72 h); higher = more inhibition; extreme values may be limits of the assay
How it was run: as §1
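Wherever Bliss excess, mean over the matrix is given: after 72 h of two-drug dosing.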

| Compound | Bliss excess [1] | Bliss excess [2] | Bliss excess [3] | Bliss excess [4] | Bliss excess [5] | Bliss excess [6] | Bliss excess [7] | Bliss excess [8] | Bliss excess [9] | combination Emax [10] | Bliss excess [11] | combination Emax [12] |
| --- | --- | --- | --- | --- | --- | --- | --- | --- | --- | --- | --- | --- |
| Cc1cc2ncnn2cc1Nc1ncc2c(n1)n(C1CCOCC1)c(=O)n2C [AZD7648] + O=C(c1cc(Cc2n[nH]c(=O)c3ccccc23)ccc1F)N1CCN(C(=O)C2CC2)CC1 [Olaparib] (first compound max 10 µM, 7x7, partner max 10 µM) | -0.0158 | -0.0445 | -0.0244 | -0.0389 | -0.0649 | -0.0608 | -0.0698 | 0.0754 | -0.0237 | 0.316 | – | – |
| Cc1nc(Nc2ncc(C(=O)Nc3c(C)cccc3Cl)s2)cc(N2CCN(CCO)CC2)n1 [Dasatinib] + CC(=O)Nc1cccc(-n2c(=O)n(C3CC3)c(=O)c3c(Nc4ccc(I)cc4F)n(C)c(=O)c(C)c32)c1 [Trametinib] (first compound max 2 µM, 7x7, partner max 1 µM) | -0.0715 | -0.0321 | – | 0.0586 | 0.123 | -0.018 | -0.0362 | -0.0087 | -0.0189 | – | -0.0223 | 0.128 |
| C[C@@H](c1ccc2nccn2c1)n1nnc2ncc(-c3cnn(C)c3)nc21 [Savolitinib] + CC1(C)CCC(CN2CCN(c3ccc(C(=O)NS(=O)(=O)c4ccc(NCC5CCOCC5)c([N+](=O)[O-])c4)c(Oc4cnc5[nH]ccc5c4)c3)CC2)=C(c2ccc(Cl)cc2)C1 [Venetoclax] (first compound max 1 µM, 7x7, partner max 1 µM) | -0.0736 | -0.0617 | – | -0.0573 | -0.0122 | -0.0257 | -0.0066 | -0.0656 | -0.0211 | – | -0.0471 | 0.0992 |
| Cc1cc2ncnn2cc1Nc1ncc2c(n1)n(C1CCOCC1)c(=O)n2C [AZD7648] + C=CCn1c(=O)c2cnc(Nc3ccc(N4CCN(C)CC4)cc3)nc2n1-c1cccc(C(C)(C)O)n1 [AZD1775] (first compound max 10 µM, partner max 1 µM) | -0.0452 | 0.0033 | -0.0899 | 0.0039 | -0.0362 | -0.005 | -0.0254 | -0.0837 | 0.0238 | 0.601 | – | – |
| COc1nnc2ccc(N3CCC(c4ccc(OCCN5CCN(C)C(=O)[C@H]5C)cc4)CC3)nn12 [AZD5153] + CN(CC[C@H](CSC1=CC=CC=C1)NC2=C(C=C(C=C2)S(=O)(=O)NC(=O)C3=CC=C(C=C3)N4CCC(CC4)[C@H](C5=CC=CC=C5C6=CC=C(C=C6)Cl)O)S(=O)(=O)C(F)(F)F)CCO [AZD4320] (first compound max 1 µM, 7x7, partner max 1 µM) | 0.089 | 0.0387 | – | 0.11 | – | – | – | 0.0682 | -0.0117 | – | 0.0512 | 0.688 |
| CN(CCO)CC[C@H](CSc1ccccc1)Nc1ccc(S(=O)(=O)NC(=O)c2ccc(N3CCC([C@@H](O)c4ccccc4-c4ccc(Cl)cc4)CC3)cc2)cc1S(=O)(=O)C(F)(F)F [AZD4320] + C[C@@H](Nc1cc(F)cc(F)c1)c1cc(C(=O)N(C)C)cc2c(=O)cc(N3CCOCC3)oc12 [AZD8186] (first compound max 1 µM, 7x7, partner max 3 µM) | -0.0169 | -0.0422 | – | 0.0262 | 0.0019 | 0.0337 | 0.0121 | 0.0115 | -0.0039 | – | 0.042 | 0.917 |
| COc1cc2ncnc(Nc3ccc(F)c(Cl)c3)c2cc1OCCCN1CCOCC1 [Gefitinib] + CC(C)n1c(=O)n(C)c2cnc3cc(F)c(-c4ccc(OCCCN5CCCCC5)nc4)cc3c21 [AZD1390] (first compound max 10 µM, 7x7, partner max 0.3 µM) | -0.0726 | -0.0662 | – | -0.042 | -0.0264 | -0.0443 | -0.0431 | -0.049 | -0.0366 | – | -0.0419 | 0.0382 |
| Cc1cc2ncnn2cc1Nc1ncc2c(n1)n(C1CCOCC1)c(=O)n2C [AZD7648] + CCN(CCO)CCCOc1ccc2c(Nc3cc(CC(=O)Nc4cccc(F)c4)[nH]n3)ncnc2c1 [AZD2811] (first compound max 10 µM, 7x7, partner max 1 µM) | 0.0327 | 0.0323 | 0.0621 | -0.0065 | 0.0111 | 0.0192 | -0.0043 | 0.01 | -0.0089 | 0.756 | – | – |
| CN(CCO)CC[C@H](CSc1ccccc1)Nc1ccc(S(=O)(=O)NC(=O)c2ccc(N3CCC([C@@H](O)c4ccccc4-c4ccc(Cl)cc4)CC3)cc2)cc1S(=O)(=O)C(F)(F)F [AZD4320] + CCN(CCO)CCCOc1ccc2c(Nc3cc(CC(=O)Nc4cccc(F)c4)[nH]n3)ncnc2c1 [AZD2811] (first compound max 1 µM, 7x7, partner max 1 µM) | 0.004 | -0.024 | – | -0.0268 | -0.0478 | 0.119 | -0.0163 | 0.12 | 0.0228 | – | 0.138 | 0.538 |
| N#Cc1cnc(Nc2cc(NC[C@H]3CNCCO3)c(C(F)(F)F)cn2)cn1 [SRA737] + C=CCn1c(=O)c2cnc(Nc3ccc(N4CCN(C)CC4)cc3)nc2n1-c1cccc(C(C)(C)O)n1 [AZD1775] (first compound max 10 µM, partner max 1 µM) | – | – | – | – | -0.0128 | 0.0904 | 0.108 | – | – | – | – | – |
| C[C@@H](c1ccc2nccn2c1)n1nnc2ncc(-c3cnn(C)c3)nc21 [Savolitinib] + Cc1c2c(nn1C)CSCc1cc(n(C)n1)CSc1cc(c3ccccc3c1)OCCCc1c(C(=O)O)n(C)c3c-2c(Cl)ccc13 [AZD5991] (first compound max 1 µM, 7x7, partner max 1 µM) | -0.0475 | -0.0088 | – | -0.0276 | -0.0238 | -0.0209 | -0.0115 | -0.0285 | -0.0423 | – | -0.0343 | 0.976 |
| Cc1cc2ncnn2cc1Nc1ncc2c(n1)n(C1CCOCC1)c(=O)n2C [AZD7648] + C[C@@H]1COCCN1C2=NC(=NC(=C2)C3(CC3)[S@](=N)(=O)C)C4=C5C=CNC5=NC=C4 [AZD6738] (first compound max 10 µM, 7x7, partner max 10 µM) | 0.0293 | -0.0163 | -0.0692 | 0.0151 | -0.002 | 0.0064 | 0.035 | -0.0073 | 0.0013 | 0.722 | – | – |
| CN(CCO)CC[C@H](CSc1ccccc1)Nc1ccc(S(=O)(=O)NC(=O)c2ccc(N3CCC([C@@H](O)c4ccccc4-c4ccc(Cl)cc4)CC3)cc2)cc1S(=O)(=O)C(F)(F)F [AZD4320] + Cc1cc2ncnn2cc1Nc1ncc2c(n1)n(C1CCOCC1)c(=O)n2C [AZD7648] (first compound max 1 µM, 7x7, partner max 10 µM) | -0.0592 | -0.0695 | – | 0.004 | -0.0343 | -0.0633 | -0.044 | -0.0059 | -0.009 | – | 0.0839 | 0.516 |
| CC(=O)c1c(C)c2cnc(Nc3ccc(N4CCNCC4)cn3)nc2n(C2CCCC2)c1=O [Palbociclib] + CN(CC[C@H](CSC1=CC=CC=C1)NC2=C(C=C(C=C2)S(=O)(=O)NC(=O)C3=CC=C(C=C3)N4CCC(CC4)[C@H](C5=CC=CC=C5C6=CC=C(C=C6)Cl)O)S(=O)(=O)C(F)(F)F)CCO [AZD4320] (first compound max 10 µM, 7x7, partner max 1 µM) | -0.0486 | -0.0497 | – | -0.0254 | – | – | – | 0.0726 | -0.0398 | – | -0.0428 | 0.436 |
| COc1cc2c(cc1OCCCCCOc1cc3c(cc1OC)C(=O)N1C=C(C)C[C@H]1C=N3)N=C[C@@H]1CC(C)=CN1C2=O [SG3199] + O=C(c1cc(Cc2n[nH]c(=O)c3ccccc23)ccc1F)N1CCN(C(=O)C2CC2)CC1 [Olaparib] (first compound max 0.001 µM, 7x7, partner max 10 µM) | -0.0312 | -0.0459 | 0.0077 | -0.0363 | -0.0438 | -0.0494 | -0.0181 | 0.0474 | -0.0198 | 0.144 | – | – |
| CN(CCO)CC[C@H](CSc1ccccc1)Nc1ccc(S(=O)(=O)NC(=O)c2ccc(N3CCC([C@@H](O)c4ccccc4-c4ccc(Cl)cc4)CC3)cc2)cc1S(=O)(=O)C(F)(F)F [AZD4320] + C[C@@H]1COCCN1C2=NC(=NC(=C2)C3(CC3)[S@](=N)(=O)C)C4=C5C=CNC5=NC=C4 [AZD6738] (first compound max 1 µM, 7x7, partner max 10 µM) | -0.0216 | -0.0307 | – | -0.0144 | -0.0093 | -0.0756 | -0.0467 | -0.0458 | 0.0019 | – | 0.0042 | 0.921 |
| N#Cc1cnc(Nc2cc(NC[C@H]3CNCCO3)c(C(F)(F)F)cn2)cn1 [SRA737] + CCc1c2c(nc3ccc(O)cc13)-c1cc3c(c(=O)n1C2)COC(=O)[C@]3(O)CC [SN-38] (first compound max 10 µM, 7x7, partner max 0.3 µM) | – | – | – | – | 0.0008 | 0.0754 | 0.113 | – | – | – | – | – |
| Cc1cc2ncnn2cc1Nc1ncc2c(n1)n(C1CCOCC1)c(=O)n2C [AZD7648] + CN(C)CCCOc1ccc(-c2ccc3ncc4c(c3c2)n(C2CCOCC2)c(=O)n4C)cn1 [AZD0156] (first compound max 10 µM, 7x7, partner max 1 µM) | -0.0114 | -0.0023 | -0.0328 | -0.006 | -0.027 | -0.058 | 0.0254 | -0.0026 | 0.0227 | 0.296 | – | – |
| N#Cc1cnc(Nc2cc(NC[C@H]3CNCCO3)c(C(F)(F)F)cn2)cn1 [SRA737] + O=c1[nH]cc(F)c(=O)[nH]1 [5-Fluorouracil] (first compound max 10 µM, 7x7, partner max 20 µM) | – | – | – | – | -0.0482 | -0.0226 | 0.0593 | – | – | – | – | – |
